Laboratory results reported in patent US8580820B2, “Tubulysin compounds with high cytotoxicity, pharmaceutical compositions thereof, and method of use thereof” (Kemtech S.r.L., priority 2009, dated 2013).
Where two headings read alike, the source gives them in different places.

Experiments:
[1] = test system: A2780, HL60, C6 and HT29 cell lines; assay: Cytotoxicity in vitro, summary over the cell lines of example 14; assay type: cell-based, human; rat; conditions: all cell lines of Tables 1 and 2; read-out: GI50 values determined by means of the cellular viability values
Method: (§1) The cytotoxic effects of the compounds of formula (A) were evaluated by treating […] with different concentrations of the compounds under screening. The following cell lines were used: A2780 (human ovarian carcinoma), HL60 (human leukaemia), C6 (rat glioma) and HT29 (adenocarcinoma of human colon). The cell lines have been obtained by ECACC (European Collection of Cell Cultures).
The cell lines have been cultured in 75 cm^2 flasks with culture medium DMEM (Dulbecco's Medium Eagle Modified, Sigma Aldrich®) and the following additives (Sigma Aldrich®): L-Glutamine 2 mM, 10% Fetal Bovine Serum, Penicillin/-Streptomycin, Fungizone, Gentamycin. The incubation was carried out in modified atmosphere incubators (37° C., 5% CO2). When cell confluence was obtained, the cells were propagated by dilution in a ratio 1:3/1:5 by using a Trypsin-EDTA 1× solution and then transferred into 96 well plates in the suitable culture medium. The cells were then treated for 72 hours with different concentrations (10^−13+10^−4 M) of the compounds under examination. For the tests in vitro the compounds obtained in the examples 1.15 and 6.8 were solubilised in dimethylsulphoxide (DMSO). […]
In order to control the cellular viability, the ATPlite test (Perkin Elmer) was used. […] For the reading the Victor 3 instrument by Perkin Elmer was used.
Four readings were taken for each sample solution. […]

[2] = test system: A2780 (human ovarian carcinoma); assay: Cytotoxicity in vitro, cellular viability (ATPlite Perkin Elmer test), A2780; assay type: cell-based; parameters: cellular viability (ATPlite Perkin Elmer test): unit not given here; conditions: 72 hours; for GI50: Homo sapiens
Method: as §1
(§2) The cell lines have been cultured in 75 cm^2 flasks with culture medium DMEM (Dulbecco's Medium Eagle Modified, Sigma Aldrich®) and the following additives (Sigma Aldrich®): L-Glutamine 2 mM, 10% Fetal Bovine Serum, Penicillin/-Streptomycin, Fungizone, Gentamycin. The incubation was carried out in modified atmosphere incubators (37° C., 5% CO2). When cell confluence was obtained, the cells were propagated by dilution in a ratio 1:3/1:5 by using a Trypsin-EDTA 1× solution and then transferred into 96 well plates in the suitable culture medium. The cells were then treated for 72 hours with different concentrations (10^−13+10^−4 M) of the compounds under examination. For the tests in vitro the compounds obtained in the examples 1.15 and 6.8 were solubilised in dimethylsulphoxide (DMSO). All the tests were performed with a constant DMSO concentration equal to 0.1% by weight.
(§3) In order to control the cellular viability, the ATPlite test (Perkin Elmer) was used. The APTlite test evaluates the ATP production. APT is a marker of cellular viability as it is present in all the metabolically active cells. The test’ is based on the chemiluminiscence due to the ATP reaction with the luciferase and the D-luciferin. The emitted light is proportional to the ATP concentration. For the reading the Victor 3 instrument by Perkin Elmer was used.
(§4) Four readings were taken for each sample solution. The results (average values) for the cytotoxicity of the compounds of formula (A) obtained in examples 1.15 and 6.8 are reported respectively in Tables 1 and 2. It is noted that the GI50 values determined by means of the cellular viability values are lower than 2 nM. This confirms the high cytotoxicity of the compound of formula (A).

[3] = test system: HL60 (human leukaemia); assay: Cytotoxicity in vitro, cellular viability (ATPlite Perkin Elmer test), HL60; assay type: cell-based; parameters: cellular viability (ATPlite Perkin Elmer test): unit not given here; conditions: HL60, 72 hours
Method: as §1, §2, §3, §4

[4] = test system: HT29 (adenocarcinoma of human colon); assay: Cytotoxicity in vitro, cellular viability (ATPlite Perkin Elmer test), HT29; assay type: cell-based; parameters: cellular viability (ATPlite Perkin Elmer test): unit not given here; conditions: for GI50: Homo sapiens, HT-29, 72 hours; for cellular viability (ATPlite Perkin Elmer test): 72 hours
Method: as §1, §2, §3, §4

[5] = Cytotoxicity in vitro, cellular viability (ATPlite Perkin Elmer test), C6; assay type: cell-based, rat; parameters: cellular viability (ATPlite Perkin Elmer test): unit not given here; conditions: rat, C6 rat glioma cells, C6, 72 hours
Method: as §1, §2, §3, §4

[6] = test system: C6 (rat glioma); assay: as above; assay type: cell-based; parameters: cellular viability (ATPlite Perkin Elmer test): unit not given here; conditions: C6, 72 hours
Method: as §1, §2, §3, §4

[7] = value is GI50 multiplied by 10^9, Table 1

Compound: CCC(C)[C@H](NC(=O)[C@H]1CCCCN1C)C(=O)N(Cc1ccccc1)[C@H](C[C@@H](OC(C)=O)c1nc(C(=O)N[C@@H](Cc2ccccc2)C[C@H](C)C(=O)O)cs1)C(C)C (stereo in doubt) [Example 1.15, (2S,4R)-4-(2-((1R,3R)-1-acetoxy-3-((2S,3R)—N-benzyl-3-methyl-2-(1-methylpiperidin-2-carboxamido)pentanamido)-4-methylpentyl)thiazol-4-carboxamido)-2-methyl-5-phenyl-pentanoic acid]
- GI50 [1]: < 2 nM
- GI50 ([2]; value is GI50 multiplied by 10^9, Table 1, read-out: GI50 × 10^9): 0.0018 nM
- cellular viability (ATPlite Perkin Elmer test) ([2]; compound 10^−4 mole/litre): 3.10
- cellular viability (ATPlite Perkin Elmer test) ([2]; compound 10^−5 mole/litre): 7.23
- cellular viability (ATPlite Perkin Elmer test) ([2]; compound 10^−6 mole/litre): 9.60
- cellular viability (ATPlite Perkin Elmer test) ([2]; compound 10^−7 mole/litre): 10.60
- cellular viability (ATPlite Perkin Elmer test) ([2]; compound 10^−8 mole/litre): 11.78
- cellular viability (ATPlite Perkin Elmer test) ([2]; compound 10^−9 mole/litre): 25.08
- cellular viability (ATPlite Perkin Elmer test) ([2]; compound 10^−10 mole/litre): 25.04
- cellular viability (ATPlite Perkin Elmer test) ([2]; compound 10^−11 mole/litre): 32.71
- cellular viability (ATPlite Perkin Elmer test) ([2]; compound 10^−12 mole/litre): 65.66
- cellular viability (ATPlite Perkin Elmer test) ([2]; compound 10^−13 mole/litre): 100.1
- GI50 × 10^9 [3, 7]: 0.0004 moles/litre
- cellular viability (ATPlite Perkin Elmer test) ([3]; compound 10^−4 mole/litre): 0.47
- cellular viability (ATPlite Perkin Elmer test) ([3]; compound 10^−5 mole/litre): 2.57
- cellular viability (ATPlite Perkin Elmer test) ([3]; compound 10^−6 mole/litre): 2.99
- cellular viability (ATPlite Perkin Elmer test) ([3]; compound 10^−7 mole/litre): 2.69
- cellular viability (ATPlite Perkin Elmer test) ([3]; compound 10^−8 mole/litre): 2.94
- cellular viability (ATPlite Perkin Elmer test) ([3]; compound 10^−9 mole/litre): 3.66
- cellular viability (ATPlite Perkin Elmer test) ([3]; compound 10^−10 mole/litre): 8.29
- cellular viability (ATPlite Perkin Elmer test) ([3]; compound 10^−11 mole/litre): 22.65
- cellular viability (ATPlite Perkin Elmer test) ([3]; compound 10^−12 mole/litre): 34.26
- cellular viability (ATPlite Perkin Elmer test) ([3]; compound 10^−13 mole/litre): 98.98
- GI50 [4, 7]: 0.312 nM
- cellular viability (ATPlite Perkin Elmer test) ([4]; compound 10^−4 mole/litre): 15.14
- cellular viability (ATPlite Perkin Elmer test) ([4]; compound 10^−5 mole/litre): 14.55
- cellular viability (ATPlite Perkin Elmer test) ([4]; compound 10^−6 mole/litre): 15.43
- cellular viability (ATPlite Perkin Elmer test) ([4]; compound 10^−7 mole/litre): 16.85
- cellular viability (ATPlite Perkin Elmer test) ([4]; compound 10^−8 mole/litre): 17.55
- cellular viability (ATPlite Perkin Elmer test) ([4]; compound 10^−9 mole/litre): 20.77
- cellular viability (ATPlite Perkin Elmer test) ([4]; compound 10^−10 mole/litre): 99.08
- cellular viability (ATPlite Perkin Elmer test) ([4]; compound 10^−11 mole/litre): 102.2
- cellular viability (ATPlite Perkin Elmer test) ([4]; compound 10^−12 mole/litre): 103.2
- cellular viability (ATPlite Perkin Elmer test) ([4]; compound 10^−13 mole/litre): 104.5

Compound: CC[C@H](C)[C@H](NC(=O)[C@H]1CCCCN1C)C(=O)N(CCOC)[C@H](C[C@@H](OC(C)=O)c1nc(C(=O)N[C@@H](Cc2ccccc2)C[C@H](C)C(=O)O)cs1)C(C)C [Example 6.8, (2S,4R)-4-(2-((1R,3R)-1-acetoxy-3-((2S,3R)—N(2-methoxyethyl)-3-methyl-2-(1-methylpiperidine-2-carboxamido)pentanamido)-4-methylpentyl)thiazol-4-carboxamido)-2-methyl-5-phenylpentanoic acid]
- viability at 72 h ([5]; compound 10^−5 mole/litre): 20.2%
- viability at 72 h ([5]; compound 10^−6 mole/litre): 19.6%
- cellular viability (ATPlite Perkin Elmer test) ([6]; compound 10^−4 mole/litre): 19.10
- cellular viability (ATPlite Perkin Elmer test) ([6]; compound 10^−7 mole/litre): 20.70
- cellular viability (ATPlite Perkin Elmer test) ([6]; compound 10^−8 mole/litre): 25.60
- cellular viability (ATPlite Perkin Elmer test) ([6]; compound 10^−9 mole/litre): 39.57
- cellular viability (ATPlite Perkin Elmer test) ([6]; compound 10^−10 mole/litre): 64.15
- cellular viability (ATPlite Perkin Elmer test) ([6]; compound 10^−11 mole/litre): 96.68
- cellular viability (ATPlite Perkin Elmer test) ([6]; compound 10^−12 mole/litre): 99.13
- cellular viability (ATPlite Perkin Elmer test) ([6]; compound 10^−13 mole/litre): 101.2
- GI50 ([6]; Rattus norvegicus, value is GI50 multiplied by 10^9, Table 2, read-out: GI50 × 10^9): 0.147 nM
- GI50 [1]: < 2 nM
- GI50 ([2]; value is GI50 multiplied by 10^9, Table 2, read-out: GI50 × 10^9): 1.54 nM
- cellular viability (ATPlite Perkin Elmer test) ([2]; compound 10^−4 mole/litre): 3.08
- cellular viability (ATPlite Perkin Elmer test) ([2]; compound 10^−5 mole/litre): 8.41
- cellular viability (ATPlite Perkin Elmer test) ([2]; compound 10^−6 mole/litre): 9.11
- cellular viability (ATPlite Perkin Elmer test) ([2]; compound 10^−7 mole/litre): 9.11
- cellular viability (ATPlite Perkin Elmer test) ([2]; compound 10^−8 mole/litre): 22.80
- cellular viability (ATPlite Perkin Elmer test) ([2]; compound 10^−9 mole/litre): 64.56
- cellular viability (ATPlite Perkin Elmer test) ([2]; compound 10^−10 mole/litre): 106.7
- cellular viability (ATPlite Perkin Elmer test) ([2]; compound 10^−11 mole/litre): 109.7
- cellular viability (ATPlite Perkin Elmer test) ([2]; compound 10^−12 mole/litre): 104.1
- cellular viability (ATPlite Perkin Elmer test) ([2]; compound 10^−13 mole/litre): 104.0
- cellular viability (ATPlite Perkin Elmer test) ([3]; compound 10^−4 mole/litre): 0.75
- cellular viability (ATPlite Perkin Elmer test) ([3]; compound 10^−5 mole/litre): 1.22
- cellular viability (ATPlite Perkin Elmer test) ([3]; compound 10^−6 mole/litre): 1.25
- cellular viability (ATPlite Perkin Elmer test) ([3]; compound 10^−7 mole/litre): 1.14
- cellular viability (ATPlite Perkin Elmer test) ([3]; compound 10^−8 mole/litre): 1.04
- cellular viability (ATPlite Perkin Elmer test) ([3]; compound 10^−9 mole/litre): 1.36
- cellular viability (ATPlite Perkin Elmer test) ([3]; compound 10^−10 mole/litre): 3.53
- cellular viability (ATPlite Perkin Elmer test) ([3]; compound 10^−11 mole/litre): 56.38
- cellular viability (ATPlite Perkin Elmer test) ([3]; compound 10^−12 mole/litre): 102.0
- cellular viability (ATPlite Perkin Elmer test) ([3]; compound 10^−13 mole/litre): 100.9
- GI50 ([3]; Homo sapiens, HL-60, value is GI50 multiplied by 10^9, Table 2, read-out: GI50 × 10^9): 0.0108 nM
- GI50 ([4]; value is GI50 multiplied by 10^9, Table 2): 0.278 nM
- cellular viability (ATPlite Perkin Elmer test) ([4]; compound 10^−4 mole/litre): 11.55
- cellular viability (ATPlite Perkin Elmer test) ([4]; compound 10^−5 mole/litre): 11.46
- cellular viability (ATPlite Perkin Elmer test) ([4]; compound 10^−6 mole/litre): 18.08
- cellular viability (ATPlite Perkin Elmer test) ([4]; compound 10^−7 mole/litre): 17.68
- cellular viability (ATPlite Perkin Elmer test) ([4]; compound 10^−8 mole/litre): 20.38
- cellular viability (ATPlite Perkin Elmer test) ([4]; compound 10^−9 mole/litre): 24.49
- cellular viability (ATPlite Perkin Elmer test) ([4]; compound 10^−10 mole/litre): 95.7
- cellular viability (ATPlite Perkin Elmer test) ([4]; compound 10^−11 mole/litre): 115.6
- cellular viability (ATPlite Perkin Elmer test) ([4]; compound 10^−12 mole/litre): 107.5
- cellular viability (ATPlite Perkin Elmer test) ([4]; compound 10^−13 mole/litre): 108.0
